# According to patent US20240398819A1 (Rhode Island Hospital, priority 2023, published 2024):
# Experiments:
# [1] = system: fibrocytes from explanted human anterior cruciate ligament (ACL) specimens; experiment: Effects of relaxin-2 antagonist / receptor antagonist on cultured ACL cells from patients with ACL reconstruction (RT-PCR); assay type: cell-based; conditions: Folic Acid 10 μg/ml, NADH 100 μg/ml
# Protocol: Measurements of expressions of MMP13, collagen 1A, collagen 3A, MMP3, and MMP1 in patient ACL tissues were conducted (FIG. 5). Biopsy tissues of the ACL from 20 patients (10 male and 10 female) who underwent surgeries for ACL reconstruction were harvested. The patients' ages ranged from 16 to 61 years, with equal numbers of males and females. The protocol for patient enrollment was approved by the IRB committee at our institution. […] After treatment, cells were lysed and analyzed for the expressions of type I collagen, type III collagen, MMP1, MMP3, and MMP13 using quantitative real-time polymerase chain reaction (RT-PCR). MMP13 expression (FIG. 5A); collagen 1A expression (FIG. 5B); collagen 3A expression (FIG. 5C); MMP3 expression (FIG. 5D); and MMP1 expression (FIG. 5E), all present the innovation. The protocol for patient enrollment was approved by the IRB committee at Rhode Island Hospital. GraphPad PRISM 8 software was used to perform all statistical analyses. Results were presented as mean+standard error of the mean (SEM) of different samples and considered significant when p<0.05. A t-test was used to compare any two groups, *p<0.05, **p<0.01, ***p<0.001 compared to their individual control group; ##p<0.01, compared to their individual relaxin-2 group.
# Measurements of expressions of MMP13, collagen 1A, collagen 3A, MMP3, and MMP1 in patient ACL tissues were conducted (FIG. 5). Biopsy tissues of the ACL from 20 patients (10 male and 10 female) who underwent surgeries for ACL reconstruction were harvested. The patients' ages ranged from 16 to 61 years, with equal numbers of males and females. The protocol for patient enrollment was approved by the TRB committee at our institution.
# After treatment, cells were lysed and analyzed for the expressions of type I collagen, type III collagen, MMP1, MMP3, and MMP13 using quantitative real-time polymerase chain reaction (RT-PCR). FIG. 5 provides expressions of MMP13, collagen 1A, collagen 3A, MMP3, and MMP1 in patient ACL tissues. (FIG. 5A) MMP13 expression; (FIG. 5B) collagen 1A expression; (FIG. 5C) collagen 3A expression; (FIG. 5D) MMP3 expression; (FIG. 5E) MMP1 expression. In FIG. 5, the protocol for patient enrollment was approved by the IRB committee at Rhode Island Hospital. GraphPad PRISM 8 software was used to perform all statistical analyses. Results were presented as mean+standard error of the mean (SEM) of different samples, and considered significant when p<0.05. A t-test was used to compare any two groups, *p<0.05, **p<0.01, ***p<0.001 compared to their individual control group; ##p<0.01, compared to their individual relaxin-2 group.
# patient ACL cells [2] = experiment: cAMP level (ELISA) in patient ACL cells after relaxin-2 treatment; assay type: cell-based, human; conditions: male and female ACL cells
# Protocol: The detection of cAMP in samples was conducted using Abcam's cAMP Complete in vitro competitive Enzyme-Linked Immunosorbent Assay (ELISA) kit. Patient samples were first thawed from −80° C. and added to a 10% protease inhibitor in RIPA buffer (Thermo Scientific) solution for cell lysis. Each sample was then pipetted up and down 10 times with a syringe every 10 minutes over the course of 30 minutes. Next, the samples were centrifuged at 14,000 RPM for 5 minutes. The supernatant was then extracted from the pellet and stored at −80° C.
# Following cell lysis and supernatant extraction, the total protein concentration of the samples was determined using a BCA protein assay. Albumin standards were prepared with the RIPA buffer and protease inhibitor. […] Standards and samples were then loaded in a 96 well plate with BCA reagent and was read in a plate reader at 570 nm to determine overall protein concentrations in samples. The concentrations of cAMP were determined using Abcam's ELISA kit. […] Stop solutions were added, and the plate was read at 405 nm with correction between 570 nm and 590 nm to determine cAMP concentrations. cAMP concentrations in pmol/mg were calculated by dividing the cAMP concentrations in pmol/mL by the total protein concentrations from the BCA protein assay in mg/mL.
# patient ACL cells [3] = experiment: MMP gene expression (quantitative real-time RT-PCR) in cultured patient ACL cells treated with relaxin-2; assay type: cell-based, human
# Protocol: Methods: Biopsy tissues of the ACL in the knee were collected from 20 patients with ACL reconstruction (ages ranging from 16 years to 61 years old, 10 males and 10 females). The normal ACLs were obtained from the rejected human knee osteochondral grafts from the Musculoskeletal Transplant Foundation (MTF) or the donors from MedCure (ages ranging from 24 years to 84 years old, 4 male and 4 females) were used as control samples. Immunohistochemistry was performed to detect the expression of RXFP2 and apoptosis. The number of RXFP2 positive and apoptotic positive cells were counted from six different fields for each patient. ACL cells were cultured in vitro, then cells were treated with relaxin-2 at different concentrations. After treatment, cells were lysed and analyzed for the expressions of MMP1 and MMP13 using quantitative real-time polymerase chain reaction. The protocol for patient enrollment was approved by the IRB committee at Rhode Island Hospital. GraphPad PRISM 8 software was used to perform all statistical analyses. Results were presented as mean±standard error of the mean (SEM) of different samples. Data were examined by one-way analysis of variance (ANOVA) with Tukey post-hoc multiple comparison. An unpaired t-test was used to compare any two groups. A value of p<0.05 was considered to be statically significant.
# Patient ACL tissues were minced and digested with 1.0 mg/mL of type II collagenase at 37° C. at 5% CO2 in 2 mL Dulbecco's modified Eagle medium F12 (DMEM/F12, Gibco) containing 1% antibiotic-antimycotic (Gibco) for 12 hours. ACL cells were then filtered through a […] nylon mesh filter and collected by centrifugation. ACL cells were plated at a density of 1×10^5 cells/cm^2 in DMEM/F12 media supplemented with 10% fetal bovine serum (FBS, Gibco) and 1% antibiotic-antimycotic in 20 cm petri dishes for passage one. The media was changed twice a week. […]
# RNA was isolated using TRIzol reagent and RNeasy Mini Kit from cultured ACL cells. RNA concentrations and purity were evaluated using a Nanodrop spectrophotometer (Thermo Scientific, Wilmington, DE, USA). A total of 1 μg of sample RNA was reverse transcribed using the Quantitect RT Kit (Qiagen, cDNA was synthesized from RNA using the iScript cDNA synthesis kit (Bio-Rad). RNA concentrations and purity were evaluated using a Nanodrop spectrophotometer (Thermo Scientific, Wilmington, DE, USA). Exactly 500 ng DNA was used as the template for real-time PCR analyses. Quantitative PCR reactions were performed using SYBR Green Fast Mix in a Bio-Rad real-time PCR machine. All Taqman primer and probe mixes were from Thermo Fisher Scientific (Waltham, MA, USA). Changes in the gene expressions of MMP1 and MMP13 were measured, which were normalized to GAPDH.
# [4] = 48 hour intravenous infusion, 30 μg/kg/day; compared with placebo group; cited from earlier work
# ACL cells = experiment: Vitamin D effects on type I collagen and MMP13 gene expression in cultured ACL cells from patients (RT-PCR); assay type: cell-based, human; conditions: 3 days; for Type I collagen expression: vitamin D 1, 10 and 100 nmol/L
# Protocol: Biopsy tissues of the ACL in the knee were collected from 20 patients with ACL reconstruction (ages ranging from 16 years to 61 years old, 10 males and 10 females). The ACL cells were cultured in vitro and treated with vitamin D at different concentrations for 3 days. Cells were then lysed and analyzed for expressions of type I collagen and MMP13 genes using quantitative real-time polymerase chain reaction. The protocol for patient enrollment was approved by the IRB committee at Rhode Island Hospital. GraphPad PRISM 8 software was used to perform all statistical analyses. Results were presented as mean±standard error of the mean (SEM) of different samples and considered significant when p<0.05. A t-test was used to compare any two groups. See Appendix II for data and further discussion.
# [5] = male ACL cells, relaxin-2 treatments vs control groups
compound,measurement,setting,value
Nc1nc2ncc(CNc3ccc(C(=O)N[C@@H](CCC(=O)O)C(=O)O)cc3)nc2c(=O)[nH]1 [Folic acid],MMP-13 expression,[1],significant decrease
same,collagen 1A expression,[1],significant increases
same,collagen 3A expression,[1],significant increases
"NC(=O)C1=CN([C@@H]2O[C@H](COP(=O)(O)OP(=O)(O)OC[C@H]3O[C@@H](n4cnc5c(N)ncnc54)[C@H](O)[C@@H]3O)[C@@H](O)[C@H]2O)C=CC1 [NADH, nicotinamide adenine dinucleotide hydride]",MMP-13 expression,[1],significant decrease
same,collagen 1A expression,[1],significant increases
same,collagen 3A expression,[1],significant increases
relaxin-2,cAMP levels,patient ACL cells [2],couldn't change
same,MMP13 expression,"patient ACL cells [3]; female ACL cells, 10 ng/mL of relaxin-2, vs untreated controls",increased
same,MMP1 expression,"patient ACL cells [3]; female ACL cells, 100 ng/mL of relaxin-2, vs untreated controls",increased
same,MMP1 expression,patient ACL cells [3]; [5],didn't significant change
same,MMP3 expression,patient ACL cells [3]; [5],didn't significant change
serelaxin,180-day mortality,[4],improvement
same,short-term dyspnea scores,[4],improvement
vitamin D,MMP13 gene expression,"ACL cells; female cells, vitamin D 1 nmol/L",increased
same,MMP13 gene expression,"ACL cells; female cells, vitamin D 10 nmol/L",reduced
same,Type I collagen expression,ACL cells; female cells,increased
same,MMP13 gene expression,"ACL cells; male cells, vitamin D 1 nmol/L",increased
same,MMP13 gene expression,"ACL cells; male cells, vitamin D 100 nmol/L",reduced
same,Type I collagen expression,ACL cells; male cells,not observed
